# Experimental data as given in patent US20240307374A1, “FORMULATION OF FURIN INHIBITOR FOR INHALATION” (BP ASSET V, INC., priority 2021, published 2024).
# Entries after “also recorded” stand apart in the source; their conditions may differ. Like-named read-outs stand apart in the source and are kept apart here.
# What was measured:
# Type in all cases: physicochemical
# Grinding stability = settings: ~30 mg ground manually in a mortar for about 5 minutes
# [1] = Complexation stability constant test: solubility in HPβCD solutions; settings: for solubility at 24 h: thermodynamic from solid
# Protocol: Additional solid was added into the sample to generate suspension if clear solution was obtained. The suspension was equilibrated via stirring (1000 rpm) for 24 hours. The suspension was centrifuged to obtain precipitate and supernatants. Solubility and pH was determined for the supernatants after filtration, and XRPD was obtained for the isolated precipitate.
# [2] = Humidity induced experiments (solid-state stability of freeform Type D under different humidities); settings: ~7%, ~22%, ~43%, ~58%, ~84% RH, RT, 6 weeks
# Protocol: The 3-mL vial was then placed into a 20-mL vial with 4 mL of the corresponding saturated salt solution. The 20-mL vial was sealed with a cap and kept at RT for the water vapor to interact with the solid.
# [3] = Solution stability in citrate buffers; settings: 28 days
# Protocol: The stability samples were stored under 5° C. and 25° C. for 28 days, respectively. After 28 days storage, the stability samples were taken out for HPLC test and pH test.
# Waters H-class UPLC (ultra-performance liquid chromatography) was used for purity, solubility, assay and stability test. Detailed method is shown in Table 9-22, Table 9-23 and Table 9-24.
# [4] = ~1 mg/mL in 10 mM citrate buffer (pH 4.3), 5° C.
# [5] = ~1 mg/mL in 10 mM citrate buffer (pH 4.3), 25° C.
# [6] = ~40 mg/mL in 100 mM citrate buffer (pH 4.1), 5° C.
# [7] = ~40 mg/mL in 100 mM citrate buffer (pH 4.1), 25° C.
smiles,measurement,setting,value
CC(=O)NCC1CCN(Cc2cc(Oc3ccc(N4CCN(CCC(=O)O)CC4)nc3)nc(-c3cc(Cl)cc(Cl)c3)c2)CC1 [Freeform Type A],crystallinity after grinding (XRPD),Grinding stability,decreased after grinding
CC(=O)NCC1CCN(Cc2cc(Oc3ccc(N4CCN(CCC(=O)O)CC4)nc3)nc(-c3cc(Cl)cc(Cl)c3)c2)CC1 [Freeform Type D],solubility at 24 h,"[1]; 5% (w/w) HPβCD solution, aqueous with cosolvent or surfactant or cyclodextrin, 5% (w/w) HPβCD, RT, 24 hours, final pH 7.3, read-out: Solubility",420 µg/mL
same,solubility at 24 h,"[1]; 5% (w/w) HPβCD solution, pH 7.3, aqueous with cosolvent or surfactant or cyclodextrin, 5% HPβCD (40.78 mmol/L), read-out: API Solubility",660 µM
same,solubility at 24 h,"[1]; 10% (w/w) HPβCD solution, aqueous with cosolvent or surfactant or cyclodextrin, 10% (w/w) HPβCD, RT, 24 hours, final pH 7.2, read-out: Solubility",940 µg/mL
same,solubility at 24 h,"[1]; 10% (w/w) HPβCD solution, pH 7.2, aqueous with cosolvent or surfactant or cyclodextrin, 10% HPβCD (81.56 mmol/L), read-out: API Solubility",1470 µM
same,solubility at 24 h,"[1]; 15% (w/w) HPβCD solution, aqueous with cosolvent or surfactant or cyclodextrin, 15% (w/w) HPβCD, RT, 24 hours, final pH 7.1, read-out: Solubility",1420 µg/mL
same,solubility at 24 h,"[1]; 15% (w/w) HPβCD solution, pH 7.1, aqueous with cosolvent or surfactant or cyclodextrin, 15% HPβCD (122.34 mmol/L), read-out: API Solubility",2220 µM
same,solubility at 24 h,"[1]; 20% (w/w) HPβCD solution, aqueous with cosolvent or surfactant or cyclodextrin, 20% (w/w) HPβCD, RT, 24 hours, final pH 7.0, read-out: Solubility",2090 µg/mL
same,solubility at 24 h,"[1]; 20% (w/w) HPβCD solution, pH 7, aqueous with cosolvent or surfactant or cyclodextrin, 20% HPβCD (163.11 mmol/L), read-out: API Solubility",3260 µM
same,solubility at 24 h,"[1]; 25% (w/w) HPβCD solution, aqueous with cosolvent or surfactant or cyclodextrin, 25% (w/w) HPβCD, RT, 24 hours, final pH 7.0, read-out: Solubility",2890 µg/mL
same,solubility at 24 h,"[1]; 25% (w/w) HPβCD solution, pH 7, aqueous with cosolvent or surfactant or cyclodextrin, 25% HPβCD (203.89 mmol/L), read-out: API Solubility",4510 µM
same,form change during solubility evaluation (XRPD),"[1]; HPβCD solutions, 24 hours",No form change
same,complexation stability constant K^1:1,"[1]; HPβCD, Higuchi-Connors phase-solubility method",1529 M⁻¹
same,form change after exposure to different humidity levels (XRPD),[2],no form change; also recorded: kinetically stable for at least 6 weeks
same,degradation,"[3]; 40 mg/mL in 100 mM citrate buffer, 5° C. and 25° C.",No significant degradation
same,Appearance,[3]; [4],yellow solution
same,Assay,[3]; [4],68.4%
same,Purity,[3]; [4],89.0 Area %
same,pH,[3]; [4],4.7
same,Appearance,[3]; [5],cloudy and yellow
same,Assay,[3]; [5],11.6%
same,Purity,[3]; [5],78.9 Area %
same,pH,[3]; [5],4.6
same,Appearance,[3]; [6],became cloudy
same,Assay,[3]; [6],95.0%
same,Purity,[3]; [6],99.7 Area %
same,pH,[3]; [6],4.8
same,Appearance,[3]; [7],remained a clear solution
same,Assay,[3]; [7],98.9%
same,Purity,[3]; [7],99.5 Area %
same,pH,[3]; [7],4.9
